Test results reported in patent US20240059671A1, “TYROSINE KINASE 2 (TYK2) DEGRADATION COMPOUNDS AND METHODS OF USE” (CULLGEN (SHANGHAI), INC., priority 2020, published 2024).

Molecular target: TYK2 (Homo sapiens, UniProt P29597)
Test: TYK2 protein degradation in MOLT-4 cells by immunoblotting
Type: cell-based
Parameters: endogenous in cells; host or cells: MOLT-4
Conditions: MOLT-4 cells, 24 hours
Experimental: MOLT-4 cells were treated with compounds at 0.5 and 5 μM concentrations for 24 hours.
MOLT-4 cells were treated with CPD-038, CPD-039, and CPD-040 at 0.04, 0.2, 1, and 5 μM concentrations for 24 hours.
MOLT-4 or NOMO-1 cells were cultured at 37° C. with 5% CO2 in RPMI 1640 Medium supplemented with 10% fetal bovine serum. Cells were authenticated using the short tandem repeat (STR) assays. Mycoplasma test results were negative.
Cultured cells were washed with cold PBS once and lysed in cold RIPA buffer supplemented with protease inhibitors and phosphatase inhibitors (Beyotime Biotechnology). The solutions were then incubated at 4° C. for 30 minutes with gentle agitation to fully lyse cells. Cell lysates were centrifuged at 13,000 rpm for 10 minutes at 4° C. and pellets were discarded. Total protein concentrations in the lysates were determined by BCA assays (Beyotime Biotechnology). Cell lysates were mixed with Laemmli loading buffer to 1× and heated at 99° C. for 5 min. Proteins were resolved on SDS-PAGE and visualized by chemiluminescence. Images were taken by a ChemiDoc MP Imaging system (Bio-Rad). Protein bands were quantitated using the accompanied software provided by Bio-Rad.
The percentage of TYK2 protein degradation of each compound at 0.5 and 5 μM determined in MOLT-4 cells as described in Methods.

TYK2, sequence (P29597 whole entry): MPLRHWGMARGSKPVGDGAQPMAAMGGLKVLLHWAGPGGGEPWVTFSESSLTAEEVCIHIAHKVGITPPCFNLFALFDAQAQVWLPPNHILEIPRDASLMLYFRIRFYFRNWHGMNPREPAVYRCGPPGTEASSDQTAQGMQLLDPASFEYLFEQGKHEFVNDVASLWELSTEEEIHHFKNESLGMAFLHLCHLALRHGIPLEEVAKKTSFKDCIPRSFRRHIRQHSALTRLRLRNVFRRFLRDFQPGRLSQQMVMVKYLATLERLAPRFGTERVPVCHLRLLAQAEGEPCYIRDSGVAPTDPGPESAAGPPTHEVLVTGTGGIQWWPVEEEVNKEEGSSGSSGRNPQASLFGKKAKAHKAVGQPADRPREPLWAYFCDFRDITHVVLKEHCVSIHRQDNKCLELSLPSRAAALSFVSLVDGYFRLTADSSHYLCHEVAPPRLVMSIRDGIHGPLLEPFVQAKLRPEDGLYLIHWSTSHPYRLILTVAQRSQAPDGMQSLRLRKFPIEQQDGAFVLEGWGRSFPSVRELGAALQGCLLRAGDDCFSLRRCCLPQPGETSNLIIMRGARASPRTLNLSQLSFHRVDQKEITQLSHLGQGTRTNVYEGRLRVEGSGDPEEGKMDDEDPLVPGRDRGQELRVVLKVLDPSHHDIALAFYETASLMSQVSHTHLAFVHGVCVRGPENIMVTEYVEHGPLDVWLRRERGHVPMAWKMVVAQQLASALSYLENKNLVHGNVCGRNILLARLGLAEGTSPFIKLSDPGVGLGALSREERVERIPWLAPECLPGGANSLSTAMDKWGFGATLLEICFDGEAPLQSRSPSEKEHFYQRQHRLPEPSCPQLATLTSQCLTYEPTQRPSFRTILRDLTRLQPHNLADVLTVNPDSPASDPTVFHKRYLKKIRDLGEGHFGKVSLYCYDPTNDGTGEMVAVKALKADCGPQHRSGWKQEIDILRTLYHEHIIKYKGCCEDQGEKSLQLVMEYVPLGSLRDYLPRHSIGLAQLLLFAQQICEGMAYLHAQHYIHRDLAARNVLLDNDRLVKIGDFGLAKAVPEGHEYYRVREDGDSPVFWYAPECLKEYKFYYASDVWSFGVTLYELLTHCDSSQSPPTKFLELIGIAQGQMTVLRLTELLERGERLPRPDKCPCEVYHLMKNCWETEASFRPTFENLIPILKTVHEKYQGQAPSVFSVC

Structure (SMILES) | TYK2 Degradation (0.5 μM) | TYK2 Degradation (MOLT-4, 0.5 μM) | TYK2 Degradation (MOLT-4, 5 μM) | TYK2 Degradation (5 μM)
CNC(=O)c1nnc(NC(=O)CNC(=O)CCCOc2cc(-c3scnc3C)ccc2CNC(=O)[C@@H]2C[C@@H](O)CN2C(=O)[C@@H](NC(=O)C2(F)CC2)C(C)(C)C)cc1Nc1cccc(-c2ncn(C)n2)c1OC [CPD-103, 6-(2-(4-(2-(((2S,4R)-1-((S)-2-(1-Fluorocyclopropane-1-carboxamido)-3,3-dimethylbutanoyl)-4-hydroxypyrrolidine-2-carboxamido)methyl)-5-(4-methylthiazol-5-yl)phenoxy)butanamido)acetamido)-4-((2-methoxy-3-(1-methyl-1H-1,2,4-triazol-3-yl)phenyl)amino)-N-methylpyridazine-3-carboxamide] | – | C (C: ≤20% TYK2 degradation) | C (C: ≤20% TYK2 degradation) | –
CNC(=O)c1nnc(NC(=O)CNC(=O)CCOCCOCCOCCOCCC(=O)N[C@H](C(=O)N2C[C@H](O)C[C@H]2C(=O)NCc2ccc(-c3scnc3C)cc2)C(C)(C)C)cc1Nc1cccc(-c2ncn(C)n2)c1OC [CPD-031, N^1—((S)-1-((2S,4R)-4-Hydroxy-2-((4-(4-methylthiazol-5-yl)benzyl)carbamoyl)pyrrolidin-1-yl)-3,3-dimethyl-1-oxobutan-2-yl)-N^16-(2-((5-((2-methoxy-3-(1-methyl-1H-1,2,4-triazol-3-yl)phenyl)amino)-6-(methylcarbamoyl)pyridazin-3-yl)amino)-2-oxoethyl)-4,7,10,13-tetraoxahexadecanediamide] | ≤20% | – | – | ≤20%
CNC(=O)c1nnc(NC(=O)CNC(=O)CCOc2cc(-c3scnc3C)ccc2CNC(=O)[C@@H]2C[C@@H](O)CN2C(=O)[C@@H](NC(=O)C2(F)CC2)C(C)(C)C)cc1Nc1cccc(-c2ncn(C)n2)c1OC [CPD-102, 6-(2-(3-(2-(((2S,4R)-1-((S)-2-(1-Fluorocyclopropane-1-carboxamido)-3,3-dimethylbutanoyl)-4-hydroxypyrrolidine-2-carboxamido)methyl)-5-(4-methylthiazol-5-yl)phenoxy)propanamido)acetamido)-4-((2-methoxy-3-(1-methyl-1H-1,2,4-triazol-3-yl)phenyl)amino)-N-methylpyridazine-3-carboxamide] | – | C (C: ≤20% TYK2 degradation) | C (C: ≤20% TYK2 degradation) | –
CNC(=O)c1nnc(NC(=O)CNC(=O)CCCCCCCCCOc2cc(-c3scnc3C)ccc2CNC(=O)[C@@H]2C[C@@H](O)CN2C(=O)[C@@H](NC(=O)C2(F)CC2)C(C)(C)C)cc1Nc1cccc(-c2ncn(C)n2)c1OC [CPD-109, 6-(2-(10-(2-(((2S,4R)-1-((S)-2-(1-Fluorocyclopropane-1-carboxamido)-3,3-dimethylbutanoyl)-4-hydroxypyrrolidine-2-carboxamido)methyl)-5-(4-methylthiazol-5-yl)phenoxy)decanamido)acetamido)-4-((2-methoxy-3-(1-methyl-JH-1,2,4-triazol-3-yl)phenyl)amino)-N-methylpyridazine-3-carboxamide] | – | B (B: <60% TYK2 degradation, and >20% TYK2 degradation) | A (A: ≥60% TYK2 degradation) | –
CNC(=O)c1nnc(NC(=O)C2CC2)cc1Nc1cccc(-c2ncn(CCNC(=O)CCCCCC(=O)N[C@H](C(=O)N3C[C@H](O)C[C@H]3C(=O)NCc3ccc(-c4scnc4C)cc3)C(C)(C)C)n2)c1OC [CPD-078, N^1-(2-(3-(3-((6-(Cyclopropanecarboxamido)-3-(methylcarbamoyl)pyridazin-4-yl)amino)-2-methoxyphenyl)-1H-1,2,4-triazol-1-yl)ethyl)-N^7-((S)-1-((2S,4R)-4-hydroxy-2-((4-(4-methylthiazol-5-yl)benzyl)carbamoyl)pyrrolidin-1-yl)-3,3-dimethyl-1-oxobutan-2-yl)heptanediamide] | ≤20% | – | – | ≤20%
CNC(=O)c1nnc(NC(=O)CNC(=O)CCCCC(=O)N[C@H](C(=O)N2C[C@H](O)C[C@H]2C(=O)NCc2ccc(-c3scnc3C)cc2)C(C)(C)C)cc1Nc1cccc(-c2ncn(C)n2)c1OC [CPD-036, N^1-((S)-1-((2S,4R)-4-Hydroxy-2-((4-(4-methylthiazol-5-yl)benzyl)carbamoyl)pyrrolidin-1-yl)-3,3-dimethyl-1-oxobutan-2-yl)-N^6-(2-((5-((2-methoxy-3-(1-methyl-1H-1,2,4-triazol-3-yl)phenyl)amino)-6-(methylcarbamoyl)pyridazin-3-yl)amino)-2-oxoethyl)adipamide] | ≤20% | – | – | 40%
CNC(=O)c1nnc(NC(=O)CNC(=O)COCCOCCOCC(=O)N[C@H](C(=O)N2C[C@H](O)C[C@H]2C(=O)NCc2ccc(-c3scnc3C)cc2)C(C)(C)C)cc1Nc1cccc(-c2ncn(C)n2)c1OC [CPD-029, 6-((S)-16-((2S,4R)-4-Hydroxy-2-((4-(4-methylthiazol-5-yl)benzyl)carbamoyl)pyrrolidine-1-carbonyl)-17,17-dimethyl-4,14-dioxo-6,9,12-trioxa-3,15-diazaoctadecanamido)-4-((2-methoxy-3-(1-methyl-1H-1,2,4-triazol-3-yl)phenyl)amino)-N-methylpyridazine-3-carboxamide] | ≤20% | – | – | ≤20%

Continued, values first:

TYK2 Degradation (0.5 μM) | TYK2 Degradation (MOLT-4, 0.5 μM) | TYK2 Degradation (MOLT-4, 5 μM) | TYK2 Degradation (5 μM) | Structure (SMILES)
≤20% | – | – | – | CNC(=O)c1nnc(NC(=O)C2CC2)cc1Nc1cccc(-c2ncn(CCNC(=O)CCOCCOCCNc3ccc4c(c3)C(=O)N(C3CCC(=O)NC3=O)C4=O)n2)c1OC (stereo not shown) [CPD-019, 6-(Cyclopropanecarboxamido)-4-((3-(1-(2-(3-(2-(2-((2-(2,6-dioxopiperidin-3-yl)-1,3-dioxoisoindolin-5-yl)amino)ethoxy)ethoxy)propanamido)ethyl)-1H-1,2,4-triazol-3-yl)-2-methoxyphenyl)amino)-N-methylpyridazine-3-carboxamide]
≤20% | – | – | – | CNC(=O)c1nnc(NC(=O)C2CC2)cc1Nc1cccc(-c2ncn(CCNC(=O)CCNc3ccc4c(c3)C(=O)N(C3CCC(=O)NC3=O)C4=O)n2)c1OC (stereo not shown) [CPD-014, 6-(Cyclopropanecarboxamido)-4-((3-(1-(2-(3-((2-(2,6-dioxopiperidin-3-yl)-1,3-dioxoisoindolin-5-yl)amino)propanamido)ethyl)-1H-1,2,4-triazol-3-yl)-2-methoxyphenyl)amino)-N-methylpyridazine-3-carboxamide]
≤20% | – | – | – | CNC(=O)c1nnc(NC(=O)C2CC2)cc1Nc1cccc(-c2ncn(CCNC(=O)CCCCCCNc3ccc4c(c3)C(=O)N(C3CCC(=O)NC3=O)C4=O)n2)c1OC (stereo not shown) [CPD-017, 6-(Cyclopropanecarboxamido)-4-((3-(1-(2-(7-((2-(2,6-dioxopiperidin-3-yl)-1,3-dioxoisoindolin-5-yl)amino)heptanamido)ethyl)-1H-1,2,4-triazol-3-yl)-2-methoxyphenyl)amino)-N-methylpyridazine-3-carboxamide]
≤20% | – | – | – | CNC(=O)c1nnc(NC(=O)C2CC2)cc1Nc1cccc(-c2ncn(CCNC(=O)CCCNc3cccc4c3C(=O)N(C3CCC(=O)NC3=O)C4=O)n2)c1OC (stereo not shown) [CPD-003, 6-(Cyclopropanecarboxamido)-4-((3-(1-(2-(4-((2-(2,6-dioxopiperidin-3-yl)-1,3-dioxoisoindolin-4-yl)amino)butanamido)ethyl)-1H-1,2,4-triazol-3-yl)-2-methoxyphenyl)amino)-N-methylpyridazine-3-carboxamide]
≤20% | – | – | ≤20% | CNC(=O)c1nnc(NC(=O)CNC(=O)CCNc2ccc3c(c2)C(=O)N(C2CCC(=O)NC2=O)C3=O)cc1Nc1cccc(-c2ncn(C)n2)c1OC (stereo not shown) [CPD-055, 6-(2-(3-((2-(2,6-Dioxopiperidin-3-yl)-1,3-dioxoisoindolin-5-yl)amino)propanamido)acetamido)-4-((2-methoxy-3-(1-methyl-1H-1,2,4-triazol-3-yl)phenyl)amino)-N-methylpyridazine-3-carboxamide]
≤20% | – | – | – | CNC(=O)c1nnc(NC(=O)C2CC2)cc1Nc1cccc(-c2ncn(CCNC(=O)CCOCCNc3ccc4c(c3)C(=O)N(C3CCC(=O)NC3=O)C4=O)n2)c1OC (stereo not shown) [CPD-018, 6-(Cyclopropanecarboxamido)-4-((3-(1-(2-(3-(2-((2-(2,6-dioxopiperidin-3-yl)-1,3-dioxoisoindolin-5-yl)amino)ethoxy)propanamido)ethyl)-1H-1,2,4-triazol-3-yl)-2-methoxyphenyl)amino)-N-methylpyridazine-3-carboxamide]
≤20% | – | – | – | CNC(=O)c1nnc(NC(=O)C2CC2)cc1Nc1cccc(-c2ncn(CCNC(=O)CCOCCNc3cccc4c3C(=O)N(C3CCC(=O)NC3=O)C4=O)n2)c1OC (stereo not shown) [CPD-008, 6-(Cyclopropanecarboxamido)-4-((3-(1-(2-(3-(2-((2-(2,6-dioxopiperidin-3-yl)-1,3-dioxoisoindolin-4-yl)amino)ethoxy)propanamido)ethyl)-1H-1,2,4-triazol-3-yl)-2-methoxyphenyl)amino)-N-methylpyridazine-3-carboxamide]
